In US10596168B2, “Antagonists of the thyroid-stimulating hormone receptor (TSHR)” (Forschungsverbund Berlin e.V., priority 2016, dated 2020):

The compounds below were run against T1, TSHR (Homo sapiens, UniProt P16473) (assay: cAMP accumulation radioimmunoassay (RIA), inhibition of TSH-induced cAMP production in HEK-293 cells stably expressing TSHR). Settings: inhibiting cAMP stimulation by TSH, radioimmunoassay.
T1 construct: expressed in transfected cells
Format: cell-based
Parameters: antagonistic activity (% inhibition): concentration or dose not given beside the values
Procedure: HEK-293 cells stably expressing TSHR, FSHR, LHGCR or CRF1R were cultured for 48 h and stimulated for 1 h at 37° C. with stimulation buffer (DMEM supplemented with 10 mM HEPES, 0.5% BSA, 0.25 mM 3-isobutyl-1-methylxanthine) containing the ligands as indicated. After stimulation medium was aspirated and reactions were stopped by lysis of the cells with 0.1% trifluoroacetic acid, 0.005% Triton X-100 for 30 min at 4° C. Supernatants were collected and heated at 95° C. for 10 min, dried in a rotation vacuum concentrator (Alpha-RCV, Christ) and finally stored at −20° C. until use. After reconstitution and acetylation of the samples (Jäschke et al. 2006), the cAMP content was determined using cAMP-^125I-tyrosyl methyl ester (10,000 cpm, IBL) and polyclonal rabbit anti cAMP antibodies. The radioactivity of the precipitate was determined in a γ-counter.
For the Secondary Screening cAMP accumulation was measured by radioimmunoassay (RIA) in HEK-293-TSHR cells as described before.
For the secondary screening we used a very sensitive in vitro technique, the radioimmunoassay. This assay was established and performed in HEK-293 cell line stably expressing TSHR.
Therefore RIA was used to measure the cAMP accumulation upon stimulation with TSH (EC80 value) and confirmed the desired effect for S4 and S9 with a clear decrease of cAMP production.

T1 sequence (P16473 21-764): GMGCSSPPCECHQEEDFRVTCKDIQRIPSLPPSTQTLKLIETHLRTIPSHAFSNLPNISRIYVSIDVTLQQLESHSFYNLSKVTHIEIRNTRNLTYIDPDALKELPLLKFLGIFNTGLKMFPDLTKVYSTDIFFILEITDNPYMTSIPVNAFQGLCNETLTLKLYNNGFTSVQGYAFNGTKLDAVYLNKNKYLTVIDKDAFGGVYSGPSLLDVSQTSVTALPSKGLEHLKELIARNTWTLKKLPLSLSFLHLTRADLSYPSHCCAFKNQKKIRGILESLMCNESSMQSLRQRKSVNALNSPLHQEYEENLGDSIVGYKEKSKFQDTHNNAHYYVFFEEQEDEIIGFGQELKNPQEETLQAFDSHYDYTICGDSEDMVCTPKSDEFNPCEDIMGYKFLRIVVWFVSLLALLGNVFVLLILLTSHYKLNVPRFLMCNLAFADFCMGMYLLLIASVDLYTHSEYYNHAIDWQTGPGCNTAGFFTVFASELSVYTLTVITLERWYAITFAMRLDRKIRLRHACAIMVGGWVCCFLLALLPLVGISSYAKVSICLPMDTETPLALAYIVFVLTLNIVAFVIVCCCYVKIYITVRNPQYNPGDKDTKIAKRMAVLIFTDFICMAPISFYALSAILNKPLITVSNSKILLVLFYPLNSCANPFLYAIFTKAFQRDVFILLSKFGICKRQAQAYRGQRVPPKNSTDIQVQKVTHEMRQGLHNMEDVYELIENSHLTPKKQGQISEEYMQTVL

SMILES | antagonistic activity (% inhibition)
O=C1C2C3CC(C2C(=O)N1c1ccccc1)C1C(c2ccc(O)cc2)c2sc(=O)[nH]c2SC31 (centres unmarked) [Compound S19] | 50%
O=C1C2C3CC(C2C(=O)N1c1cccc(C(F)(F)F)c1)C1C(c2ccccc2)c2sc(=O)[nH]c2SC31 (centres unmarked) [Compound S21] | 55%
Cc1ccc(N2C(=O)C3C4CC(C3C2=O)C2C(c3ccc(N(C)C)cc3)c3sc(=O)[nH]c3SC42)cc1 (centres unmarked) [Compound S18] | 30%
COc1ccc(N2C(=O)[C@@H]3[C@H]4C[C@H]([C@@H]5Sc6[nH]c(=O)sc6[C@@H](c6ccccc6)[C@H]45)[C@@H]3C2=O)cc1 (racemic) [Compound S89, (4aR,5R,5aS,8aS,9S,9aR,10S)-7-(4-methoxyphenyl)-10-phenyl-3,4a,5,5a,8a,9,9a,10-octahydro-5,9-methanothiazolo[5′,4′:5,6]thiopyrano[2,3-t]isoindole-2,6,8(7H)-trione compound with (4aS,5S,5aR,8aR,9R,9aS,10R)-7-(4-methoxyphenyl)-10-phenyl-3,4a,5,5a,8a,9,9a,10-octahydro-5,9-methanothiazolo[5′,4′:5,6]thiopyrano[2,3-t]isoindole-2,6,8(7H)-trione (1:1)] | 22%
O=C1[C@@H]2[C@H]3C[C@H]([C@@H]4Sc5[nH]c(=O)sc5[C@@H](c5cccc(O)c5)[C@H]34)[C@@H]2C(=O)N1c1ccccc1 (racemic) [Compound S125, (4aR,5R,5aS,8aS,9S,9aR,10S)-10-(3-hydroxyphenyl)-7-phenyl-3,4a,5,5a,8a,9,9a,10-octahydro-5,9-methanothiazolo[5′,4′:5,6]thiopyrano[2,3-f]isoindole-2,6,8(7H)-trione compound with (4aS,5S,5aR,8aR,9R,9aS,10R)-10-(3-hydroxyphenyl)-7-phenyl-3,4a,5,5a,8a,9,9a,10-octahydro-5,9-methanothiazolo[5′,4′:5,6]thiopyrano[2,3-f]isoindole-2,6,8(7H)-trione (1:1)] | 34%
O=C1[C@@H]2[C@H]3C[C@H]([C@@H]4Sc5[nH]c(=O)sc5[C@@H](c5ccccc5)[C@H]34)[C@@H]2C(=O)N1c1ccc(O)cc1 (racemic) [Compound S100, (4aR,5R,5aS,8aS,9S,9aR,10S)-7-(4-hydroxyphenyl)-10-phenyl-3,4a,5,5a,8a,9,9a,10-octahydro-5,9-methanothiazolo[5′,4′:5,6]thiopyrano[2,3-f]isoindole-2,6,8(7H)-trione compound with (4aS,5S,5aR,8aR,9R,9aS,10R)-7-(4-hydroxyphenyl)-10-phenyl-3,4a,5,5a,8a,9,9a,10-octahydro-5,9-methanothiazolo[5′,4′:5,6]thiopyrano[2,3-f]isoindole-2,6,8(7H)-trione (1:1)] | 34%
CN1CCN(c2ccc(N3C(=O)[C@@H]4[C@H]5C[C@H]([C@@H]6Sc7[nH]c(=O)sc7[C@@H](c7ccccc7)[C@H]56)[C@@H]4C3=O)cc2[N+](=O)[O-])CC1 [Compound S38, (4aS,5S,5aR,8aR,9R,9aS,10R)-7-(4-(4-methylpiperazin-1-yl)-3-nitrophenyl)-10-phenyl-3,4a,5,5a,8a,9,9a,10-octahydro-5,9-methanothiazolo[5′,4′:5,6]thiopyrano[2,3-f]isoindole-2,6,8(7H)-trione] | 40%
CC(=O)c1ccc(N2C(=O)[C@@H]3[C@H]4C[C@H]([C@@H]5Sc6[nH]c(=O)sc6[C@@H](c6ccccc6)[C@H]45)[C@@H]3C2=O)cc1 (racemic) [Compound S80, (4aR,5R,5aS,8aS,9S,9aR,10S)-7-(4-acetylphenyl)-10-phenyl-3,4a,5,5a,8a,9,9a,10-octahydro-5,9-methanothiazolo[5′,4′:5,6]thiopyrano[2,3-f]isoindole-2,6,8(7H)-trione Compound with (4aS,5S,5aR,8aR,9R,9aS,10R)-7-(4-acetylphenyl)-10-phenyl-3,4a,5,5a,8a,9,9a,10-octahydro-5,9-methanothiazolo[5′,4′:5,6]thiopyrano[2,3-f]isoindole-2,6,8(7H)-trione (1:1)] | 25%

Continued, values first:

antagonistic activity (% inhibition) | SMILES
34% | COC(=O)c1cccc(N2C(=O)[C@@H]3[C@H]4C[C@H]([C@@H]5Sc6[nH]c(=O)sc6[C@@H](c6ccccc6)[C@H]45)[C@@H]3C2=O)c1 (racemic) [Compound S96, methyl 3-((4aR,5R,5aS,8aS,9S,9aR,10S)-2,6,8-trioxo-10-phenyl-3,4a,5,5a,6,8,8a,9,9a,10-decahydro-5,9-methanothiazolo[5′,4′:5,6]thiopyrano[2,3-f]isoindol-7(2H)-yl)benzoate compound with methyl 3-((4aS,5S,5aR,8aR,9R,9aS,10R)-2,6,8-trioxo-10-phenyl-3,4a,5,5a,6,8,8a,9,9a,10-decahydro-5,9-methanothiazolo[5′,4′:5,6]thiopyrano[2,3-f]isoindol-7(2H)-yl)benzoate (1:1)]
22% | O=C1[C@@H]2[C@H]3C[C@H]([C@@H]4Sc5[nH]c(=O)sc5[C@@H](c5ccc(F)cc5)[C@H]34)[C@@H]2C(=O)N1c1ccccc1 (racemic) [Compound S124, (4aR,5R,5aS,8aS,9S,9aR,10S)-10-(4-fluorophenyl)-7-phenyl-3,4a,5,5a,8a,9,9a,10-octahydro-5,9-methanothiazolo[5′,4′:5,6]thiopyrano[2,3-f]isoindole-2,6,8(7H)-trione compound with (4aS,5S,5aR,8aR,9R,9aS,10R)-10-(4-fluorophenyl)-7-phenyl-3,4a,5,5a,8a,9,9a,10-octahydro-5,9-methanothiazolo[5′,4′:5,6]thiopyrano[2,3-f]isoindole-2,6,8(7H)-trione (1:1)]
35% | O=C1C2C3C=CC(C3)C2C(=O)N1c1ccc(N2CCOCC2)c([N+](=O)[O-])c1 (centres unmarked) [Compound S26]
38% | O=C1[C@@H]2[C@H]3C[C@H]([C@@H]4Sc5[nH]c(=O)sc5[C@@H](c5ccc(O)cc5)[C@H]34)[C@@H]2C(=O)N1c1ccccc1 (racemic) [Compound S122, (4aR,5R,5aS,8aS,9S,9aR,10S)-10-(4-hydroxyphenyl)-7-phenyl-3,4a,5,5a,8a,9,9a,10-octahydro-5,9-methanothiazolo[5′,4′:5,6]thiopyrano[2,3-f]isoindole-2,6,8(7H)-trione compound with (4aS,5S,5aR,8aR,9R,9aS,10R)-10-(4-hydroxyphenyl)-7-phenyl-3,4a,5,5a,8a,9,9a,10-octahydro-5,9-methanothiazolo[5′,4′:5,6]thiopyrano[2,3-f]isoindole-2,6,8(7H)-trione (1:1)]
29% | Nc1ccc(N2C(=O)[C@@H]3[C@H]4C[C@H]([C@@H]5Sc6[nH]c(=O)sc6[C@@H](c6ccccc6)[C@H]45)[C@@H]3C2=O)cc1 (racemic) [Compound S79, (4aR,5R,5aS,8aS,9S,9aR,10S)-7-(4-aminophenyl)-10-phenyl-3,4a,5,5a,8a,9,9a,10-octahydro-5,9-methanothiazolo[5′,4′:5,6]thiopyrano[2,3-f]isoindole-2,6,8(7H)-trione Compound with (4aS,5S,5aR,8aR,9R,9aS,10R)-7-(4-aminophenyl)-10-phenyl-3,4a,5,5a,8a,9,9a,10-octahydro-5,9-methanothiazolo[5′,4′:5,6]thiopyrano[2,3-t]isoindole-2,6,8(7H)-trione (1:1)]
30% | CCOC(=O)N1CCN(c2ncc(N3C(=O)C4C(C3=O)[C@H]3C=C[C@@H]4C3)cc2[N+](=O)[O-])CC1 (some centres unmarked) [Compound S34]
15% | CCOC(=O)N1CCN(c2ncc(N3C(=O)[C@@H]4[C@H](C3=O)[C@H]3C=C[C@@H]4C3)cc2[N+](=O)[O-])CC1 [Compound S35]
53% | Cc1ccc(N2C(=O)[C@@H]3[C@H]4C[C@H]([C@@H]5Sc6[nH]c(=O)sc6[C@@H](c6ccccc6)[C@H]45)[C@@H]3C2=O)cc1 (racemic) [Compound S90, (4aR,5R,5aS,8aS,9S,9aR,10S)-10-phenyl-7-(p-tolyl)-3,4a,5,5a,8a,9,9a,10-octahydro-5,9-methanothiazolo[5′,4′:5,6]thiopyrano[2,3-f]isoindole-2,6,8(7H)-trione Compound with (4aS,5S,5aR,8aR,9R,9aS,10R)-10-phenyl-7-(p-tolyl)-3,4a,5,5a,8a,9,9a,10-octahydro-5,9-methanothiazolo[5′,4′:5,6]thiopyrano[2,3-f]isoindole-2,6,8(7H)-trione (1:1)]
29% | COC(=O)c1ccc(N2C(=O)[C@@H]3[C@H]4C[C@H]([C@@H]5Sc6[nH]c(=O)sc6[C@@H](c6ccccc6)[C@H]45)[C@@H]3C2=O)cc1 (racemic) [Compound S87, methyl 4-((4aR,5R,5aS,8aS,9S,9aR,10S)-2,6,8-trioxo-10-phenyl-3,4a,5,5a,6,8,8a,9,9a,10-decahydro-5,9-methanothiazolo[5′,4′:5,6]thiopyrano[2,3-f]isoindol-7(2H)-yl)benzoate compound with methyl 4-((4aS,5S,5aR,8aR,9R,9aS,10R)-2,6,8-trioxo-10-phenyl-3,4a,5,5a,6,8,8a,9,9a,10-decahydro-5,9-methanothiazolo[5′,4′:5,6]thiopyrano[2,3-f]isoindol-7(2H)-yl)benzoate (1:1)]
